Structures can show the parent of a compound that is named as a salt.
Row | SMILES | melting point [°C]
1 | Nc1nc(-c2ccc(C(=O)N3CCN(S(=O)(=O)c4ccc5cc(Br)ccc5c4)CC3)cc2)c[nH]1 (as salt: salt) [Example 4, 1-(6-Bromonaphth-2-ylsulphonyl)-4-[4-(2-aminoimidazol-4-yl)benzoyl]piperazine] | 274 to 275
2 | Cc1nc(-c2ccc(C(=O)N3CCN(S(=O)(=O)c4ccc5cc(Br)ccc5c4)CC3)cc2)c[nH]1 [Example 3, 1-(6-Bromonaphth-2-ylsulphonyl)-4-[4-(2-methylimidazol-4-yl)benzoyl]piperazine] | 215 to 216

Source: patent US6395731B1, “Heterocyclic derivatives which inhibit Factor Xa” (Astrazeneca AB, priority 1998, dated 2002)
